No end group written: not given here.

Data set [1] concerns HeLa cells. Nature of the data set: Cytotoxicity (resazurin) assay in HeLa cells. The following applies: 24 h, 25 µM peptide, resazurin assay. As for the experimental part:
For cell viability assay, cells were (15,000 HeLa, 17,000 MCF-7 and 12,000 HFF-1 cells per well) seeded onto a 96-well plate and grown to 80–90% confluency. Cells were incubated with several peptide concentrations in a serum-free growth medium for 24 h under standard growth conditions. For the positive control, cells were treated with 70% EtOH for 7 min. After washing with DPBS, resazurin solution (10% in serum-free media, v/v) was incubated with the cells for 1 h under standard growth conditions. The cell viability was determined relative to untreated cells by measurement of the resorufin product at 595 nm (λex = 550 nm) on a Tecan infinite M200 plate reader (Tecan Group AG, Männedorf, Switzerland).
Figure 2 (A,B): Cytotoxicity profiles of the peptides in HeLa and HEK-293 cells. Cells were cultured and incubated at pH 7.4 for 24 h with different concentrations of peptide solutions. Untreated cells served as negative control; cells treated with 70% ethanol as positive control. Values from the positive control were subtracted from all data, and the untreated cells were set to 100%; assays were performed with n = 3 in triplicate. (C): Flow cytometry analysis of HeLa or HEK-293 cells after incubating 1 and 10 µM peptide solutions for 30 min at 37 °C; assays were conducted in triplicate n = 3. (D): Confocal laser scanning microscopy analysis of 10 µM CF-labeled peptides after 30 min of incubation in HeLa cells. Green: CF-labeled peptides; blue: Hoechst 33342 nuclear stain; scale bar is 10 µm.
Figure 5 (A): Cytotoxicity assay using HFF-1 cells. Different PDC concentrations were incubated with the cells for 24 h at 37 °C and a resazurin assay was conducted. (B): Dose-response curves for peptide drug conjugates were obtained using the resazurin assay. For this, HeLa cells were treated with various conjugate concentrations (2.5–70 µM) for 24 h at 37 °C. (C): Quantification of PDC internalization in HeLa cells; 10 µM PDC solutions were incubated with cells for 30 min at 37 °C and cells were inspected using a flow cytometer; assays were conducted in triplicate n = 3.

Data set [2] concerns HeLa cells. Put plainly: Fluorescence microscopy of intracellular distribution in HeLa cells. The format is cell-based, human. The settings on record: 10 µM CF-labeled peptide, 30 min, confocal fluorescence microscopy. As for the experimental part: Cells were seeded into 8-well plates (HeLa cells 35,000 and HFF-1 25,000 cells per well, respectively) and grown to 80–90% confluency. Cells were treated with 10 μM CF- or dox-labeled peptides in a serum-free medium for 30 min at 37 °C. Ten minutes prior to the end of the incubation time, nuclei were stained with Hoechst33342. The peptide solution was removed, and cells were washed five times with PBS and covered with fresh medium including FBS. Microscopic analysis was performed using an inverse confocal TCS SP8 microscope (Leica Microsystems, Wetzlar, Germany), equipped with a 63× oil-immersion objective. Images were recorded with LAS X software (LAS_X_Core_3.7.6_25997, Leica Microsystems, Wetzlar, Germany). For the GUV analysis and the uptake of the peptide-drug conjugates the Keyence fluorescence tabletop microscope BZ-X800E (Keyence, Osaka, Japan), with a 60× oil immersion lens was used. Images were recorded with Keyence software (BZ-800X_Analyzer 1.1.1.8, Keyence, Osaka: Japan) and evaluated with Fiji.
Figure 6 Fluorescence microscope analysis of 5 µM conjugates after 30 min of incubation at 37 °C in HeLa and HFF-1 cells. Red: peptides coupled to red fluorophore Doxorubicin; blue: Hoechst 33342 nuclear stain; BF: brightfield to identify living cells; scale bar is 20 µm.

Data set [3] is described as follows: Peptide interaction with anionic giant unilamellar vesicles. The settings on record: 1 µM CF-labeled peptide, 30 min, room temperature, fluorescence microscopy, Oyster405 dye outflow. How it is done:
A thin agarose layer is necessary to build GUVs. Therefore, 1% super low melting agarose was melted in deionized water by heating up in a microwave. Afterward, 200 µL were coated on a clean slide and dried at 50 °C for 30 min on a heating plate; 10 µL of respective lipid solution was added onto the agarose layer and subsequently distributed and dried for 1 h using an exicator under vacuum to get rid of the chloroform. For staining the lipid layer, 0.2 mol % Atto550 was added. Afterward, a sealing ring was added around the pink lipid film. Lipids were hydrated with dextran buffer (10 mM HEPES buffer (pH 7.4), 50 mM KCl, 50 mM NaCl and 1 mg/mL Dextran) containing 3 µL Oyster405 (Luminaris GmbH, Münster, Germany) encapsulating the blue dye. Slides were incubated for 2 h at RT. […] For fluorescence microscopy analysis, lipids were transferred into an eight-well Ibidi® plate; 40 µL of respective GUV solution was mixed with 1 µM peptide solutions and filled up to 100 µL with dextran buffer. […] Afterward, GUVs were analyzed using a BZ-X800E microscope (Keyence, Osaka, Japan) followed by image processing with ImageJ.
Figure 4 Peptide interaction with […] (GUVs) composed of DOPC/DOPE/DOPG (40:30:30); 1 µM solutions of sC18 variants were incubated with GUVs for 30 min and inspected using a fluorescence microscope (Keyence). […]

RLRKLLRKFLRK-NH2 [sC18*^R,L]: in the data set with HeLa cells [1], the cell viability (as a rule, a read-out of living cells in per cent, often relative to untreated cells) at 25 µM is approximately 35%. Moreover, the “intracellular accumulation / uptake pattern” value in the data set on HeLa cells [2] is on record as “highly enriched all over the cytosol including uptake in the nuclei”. Also, the “interaction with anionic GUVs” value in data set [3] was “strongest accumulation leading to membrane disruption events and complete dye outflow from the vesicles”.

The record behind these values is paper PMC9570898, “Comparing Variants of the Cell-Penetrating Peptide sC18 to Design Peptide-Drug Conjugates” (Molecules, 2022).
